In PubChem BioAssay AID1259407 (Chemical Carcinogenesis Research Information System (CCRIS), 2018):
Active and inactive are the calls of the source. The rule behind the calls is not given here.

Test system: CCRIS mutagenicity, Ames/micronucleus/aberration tests
Assay: CCRIS mutagenicity studies
[1] = Test System: AMES SALMONELLA TYPHIMURIUM, Strain/Indicator: TA98, Metabolic Activation: NONE, Method: PREINCUBATION
[2] = Test System: AMES SALMONELLA TYPHIMURIUM, Strain/Indicator: TA100, Metabolic Activation: NONE, Method: PREINCUBATION
[3] = Test System: AMES SALMONELLA TYPHIMURIUM, Strain/Indicator: TA1535, Metabolic Activation: NONE, Method: PREINCUBATION

c1ccc2c(c1)ccc1nc3ccc4ccccc4c3cc12
mutagenic call (Test System: AMES SALMONELLA TYPHIMURIUM, Strain/Indicator: TA98, Metabolic Activation: GUINEA PIG, LIVER, S-9, 3-METHYLCHOLANTHRENE, Method: STANDARD PLATE): inactive; negative | mutagenic call (Test System: AMES SALMONELLA TYPHIMURIUM, Strain/Indicator: TA100, Metabolic Activation: GUINEA PIG, LIVER, S-9, 3-METHYLCHOLANTHRENE, Method: STANDARD PLATE): active; positive | mutagenic call (Test System: AMES SALMONELLA TYPHIMURIUM, Strain/Indicator: TA100, Metabolic Activation: RAT, LIVER, S-9, AROCLOR 1254, Method: STANDARD PLATE): active; positive | mutagenic call (Test System: AMES SALMONELLA TYPHIMURIUM, Strain/Indicator: TA1537, Metabolic Activation: RAT, LIVER, S-9, AROCLOR 1254, Method: STANDARD PLATE): active; positive | mutagenic call (Test System: AMES SALMONELLA TYPHIMURIUM, Strain/Indicator: TA1537, Metabolic Activation: RAT, LIVER, S-9, PHENOBARBITAL, Method: STANDARD PLATE): active; positive | mutagenic call (Test System: AMES SALMONELLA TYPHIMURIUM, Strain/Indicator: TA1538, Metabolic Activation: RAT, LIVER, S-9, PHENOBARBITAL, Method: STANDARD PLATE): active; positive | mutagenic call (Test System: CHINESE HAMSTER V-79, Strain/Indicator: V-79/6-THIOGUANINE, Metabolic Activation: GUINEA PIG, LIVER, S-9, 3-METHYLCHOLANTHRENE): active; positive

COc1ccc([C@H]2O[C@H]2C)cc1
mutagenic call [1]: inactive; negative | mutagenic call [2]: active; positive | mutagenic call [3]: active; positive

COc1cc(O[C@@H]2O[C@H](CO)[C@@H](O)[C@H](O)[C@H]2O)c2c(=O)c3c(O)ccc(O)c3oc2c1
mutagenic call (Test System: AMES SALMONELLA TYPHIMURIUM, Strain/Indicator: TA97, Metabolic Activation: RAT, LIVER, S-9, PHENOBARBITAL AND 5,6-BENZOFLAVONE, BETA-GLUCOSIDASE, Method: PREINCUBATION): active; positive | mutagenic call (Test System: AMES SALMONELLA TYPHIMURIUM, Strain/Indicator: TA98, Metabolic Activation: RAT, LIVER, S-9, PHENOBARBITAL AND 5,6-BENZOFLAVONE, BETA-GLUCOSIDASE, Method: PREINCUBATION): inactive; negative | mutagenic call (Test System: AMES SALMONELLA TYPHIMURIUM, Strain/Indicator: TA100, Metabolic Activation: RAT, LIVER, S-9, PHENOBARBITAL AND 5,6-BENZOFLAVONE, BETA-GLUCOSIDASE, Method: PREINCUBATION): active; positive | mutagenic call (Test System: AMES SALMONELLA TYPHIMURIUM, Strain/Indicator: TA2637, Metabolic Activation: RAT, LIVER, S-9, PHENOBARBITAL AND 5,6-BENZOFLAVONE, BETA-GLUCOSIDASE, Method: PREINCUBATION): active; positive

C=CC(=C)C
mutagenic call (End Point: IN VIVO CHROMOSOMAL ABERRATIONS, Test System: BONE MARROW CELLS, Species: MOUSE, Strain/Sex: B6C3F1/MALE, Route: INHALATION): inactive; negative | mutagenic call (End Point: IN VIVO MICRONUCLEUS, Test System: PERIPHERAL BLOOD LYMPHOCYTES, Species: MOUSE, Strain/Sex: B6C3F1/MALE, Route: INHALATION): active; positive | mutagenic call (Test System: AMES SALMONELLA TYPHIMURIUM, Strain/Indicator: TA98, Metabolic Activation: HAMSTER, LIVER, S-9, AROCLOR 1254 (10%), Method: PREINCUBATION): inactive; negative | mutagenic call [1]: inactive; negative | mutagenic call (Test System: AMES SALMONELLA TYPHIMURIUM, Strain/Indicator: TA98, Metabolic Activation: RAT, LIVER, S-9, AROCLOR 1254 (10%), Method: PREINCUBATION): inactive; negative | mutagenic call (Test System: AMES SALMONELLA TYPHIMURIUM, Strain/Indicator: TA98, Metabolic Activation: S-9, Method: PREINCUBATION): inactive; negative | mutagenic call (Test System: AMES SALMONELLA TYPHIMURIUM, Strain/Indicator: TA100, Metabolic Activation: HAMSTER, LIVER, S-9, AROCLOR 1254 (10%), Method: PREINCUBATION): inactive; negative | mutagenic call [2]: inactive; negative | mutagenic call (Test System: AMES SALMONELLA TYPHIMURIUM, Strain/Indicator: TA100, Metabolic Activation: RAT, LIVER, S-9, AROCLOR 1254 (10%), Method: PREINCUBATION): inactive; negative | mutagenic call (Test System: AMES SALMONELLA TYPHIMURIUM, Strain/Indicator: TA100, Metabolic Activation: S-9, Method: PREINCUBATION): inactive; negative | mutagenic call (Test System: AMES SALMONELLA TYPHIMURIUM, Strain/Indicator: TA1535, Metabolic Activation: HAMSTER, LIVER, S-9, AROCLOR 1254 (10%), Method: PREINCUBATION): inactive; negative | mutagenic call [3]: inactive; negative | mutagenic call (Test System: AMES SALMONELLA TYPHIMURIUM, Strain/Indicator: TA1535, Metabolic Activation: RAT, LIVER, S-9, AROCLOR 1254 (10%), Method: PREINCUBATION): inactive; negative | mutagenic call (Test System: AMES SALMONELLA TYPHIMURIUM, Strain/Indicator: TA1535, Metabolic Activation: S-9, Method: PREINCUBATION): inactive; negative | mutagenic call (Test System: AMES SALMONELLA TYPHIMURIUM, Strain/Indicator: TA1537, Metabolic Activation: HAMSTER, LIVER, S-9, AROCLOR 1254 (10%), Method: PREINCUBATION): inactive; negative | mutagenic call (Test System: AMES SALMONELLA TYPHIMURIUM, Strain/Indicator: TA1537, Metabolic Activation: NONE, Method: PREINCUBATION): inactive; negative | mutagenic call (Test System: AMES SALMONELLA TYPHIMURIUM, Strain/Indicator: TA1537, Metabolic Activation: RAT, LIVER, S-9, AROCLOR 1254 (10%), Method: PREINCUBATION): inactive; negative | mutagenic call (Test System: E.COLI, Strain/Indicator: WP2UVRA/PKM101, Metabolic Activation: NONE, Method: PREINCUBATION): inactive; negative | mutagenic call (Test System: E.COLI, Strain/Indicator: WP2UVRA/PKM101, Metabolic Activation: S-9, Method: PREINCUBATION): inactive; negative

COC1=CC(=O)OC(/C=C/c2ccccc2)C1 (centres undefined)
mutagenic call (Test System: L5178Y ( tk+/tk-), Metabolic Activation: Human, Liver, S-9, Method: Suspension/plate): inactive; negative

O=S(=O)(C(Cl)(Cl)Cl)C(Cl)(Cl)Cl
mutagenic call (Test System: MOUSE LYMPHOMA, Strain/Indicator: L5178Y (TK+/TK-), Metabolic Activation: NONE, Method: SUSPENSION/PLATE): inactive; negative. reevaluation of results: positive | mutagenic call (Test System: MOUSE LYMPHOMA, Strain/Indicator: L5178Y (TK+/TK-), Metabolic Activation: RAT, LIVER, S-9, AROCLOR 1254, Method: SUSPENSION/PLATE): inactive; negative. reevaluation of results: negative

C=C1C[C@@]23CC[C@H]4[C@@](C)(CCC[C@@]4(C)C(=O)O)[C@@H]2CC[C@@H]1C3
mutagenic call (Test System: AMES SALMONELLA TYPHIMURIUM, Strain/Indicator: TM677, Metabolic Activation: RAT, LIVER, S-9, AROCLOR 1254, Method: PREINCUBATION): inactive; negative

CC1CC(=O)O1 (centres undefined)
mutagenic call (Test System: AMES SALMONELLA TYPHIMURIUM, Strain/Indicator: G46, Metabolic Activation: NONE, Method: STANDARD PLATE): active; positive | mutagenic call (Test System: AMES SALMONELLA TYPHIMURIUM, Strain/Indicator: TA98, Metabolic Activation: HAMSTER, LIVER, S-9, AROCLOR 1254 (30%), Method: PREINCUBATION): active; positive | mutagenic call [1]: active; positive | mutagenic call (Test System: AMES SALMONELLA TYPHIMURIUM, Strain/Indicator: TA98, Metabolic Activation: RAT, LIVER, S-9, AROCLOR 1254 (30%), Method: PREINCUBATION): active; positive | mutagenic call (Test System: AMES SALMONELLA TYPHIMURIUM, Strain/Indicator: TA100, Metabolic Activation: HAMSTER, LIVER, S-9, AROCLOR 1254 (30%), Method: PREINCUBATION): active; positive | mutagenic call [2]: active; positive | mutagenic call (Test System: AMES SALMONELLA TYPHIMURIUM, Strain/Indicator: TA100, Metabolic Activation: RAT, LIVER, S-9, AROCLOR 1254 (30%), Method: PREINCUBATION): active; positive
